Reference: ChEMBL document CHEMBL1629583, “Establishment of in vitro susceptibility testing methodologies and comparative activities of piperacillin in combination with the penem {beta}-lactamase inhibitor BLI-489” (2009)
In brackets after ≈: the same amount, converted by molar mass.

Experiments:
Assay type in all cases: functional
[1] = system: Bacteroides fragilis; experiment: Antimicrobial activity against Bacteroides fragilis clinical isolate after 18 to 22 hrs by broth microdilution method
[2] = system: Bacteroides thetaiotaomicron; experiment: Antimicrobial activity against Bacteroides thetaiotaomicron clinical isolate after 18 to 22 hrs by broth microdilution method
[3] = system: Bacteroides uniformis; experiment: Antimicrobial activity against Bacteroides uniformis clinical isolate after 18 to 22 hrs by broth microdilution method
[4] = system: Clostridium perfringens; experiment: Antimicrobial activity against Clostridium perfringens clinical isolate after 18 to 22 hrs by broth microdilution method
[5] = system: Peptostreptococcus anaerobius; experiment: Antimicrobial activity against Peptostreptococcus anaerobius clinical isolate after 18 to 22 hrs by broth microdilution method
[6] = system: Parvimonas micra; experiment: Antimicrobial activity against Peptostreptococcus micros clinical isolate after 18 to 22 hrs by broth microdilution method
[7] = system: Burkholderia cepacia; experiment: Antimicrobial activity against Burkholderia cepacia clinical isolate after 18 to 22 hrs by broth microdilution method
[8] = system: Stenotrophomonas maltophilia; experiment: Antimicrobial activity against Stenotrophomonas maltophilia clinical isolate after 18 to 22 hrs by broth microdilution method
[9] = system: Pseudomonas aeruginosa; experiment: Antimicrobial activity against Pseudomonas aeruginosa clinical isolate after 18 to 22 hrs by broth microdilution method
[10] = system: Haemophilus influenzae; experiment: Antimicrobial activity against beta-lactamase-producing Haemophilus influenzae clinical isolate after 18 to 22 hrs by broth microdilution method
[11] = system: Haemophilus influenzae; experiment: Antimicrobial activity against beta-lactamase-negative Haemophilus influenzae clinical isolate after 18 to 22 hrs by broth microdilution method
[12] = system: Haemophilus parainfluenzae; experiment: Antimicrobial activity against Haemophilus parainfluenzae clinical isolate after 18 to 22 hrs by broth microdilution method
[13] = system: Moraxella catarrhalis; experiment: Antimicrobial activity against Moraxella catarrhalis clinical isolate after 18 to 22 hrs by broth microdilution method
[14] = system: Citrobacter koseri; experiment: Antimicrobial activity against Citrobacter koseri clinical isolate after 18 to 22 hrs by broth microdilution method
[15] = system: Enterobacter cloacae; experiment: Antimicrobial activity against Enterobacter cloacae clinical isolate after 18 to 22 hrs by broth microdilution method
[16] = system: Escherichia coli; experiment: Antimicrobial activity against class A extended spectrum beta-lactamase- and class D OXA- producing Escherichia coli clinical isolate after 18 to 22 hrs by broth microdilution method
[17] = system: Escherichia coli; experiment: Antimicrobial activity against Escherichia coli clinical isolate after 18 to 22 hrs by broth microdilution method
[18] = system: Escherichia coli; experiment: Antimicrobial activity against class A extended spectrum beta-lactamase- producing Escherichia coli clinical isolate after 18 to 22 hrs by broth microdilution method
[19] = system: Escherichia coli; experiment: Antimicrobial activity against AmpC beta-lactamase-producing Escherichia coli clinical isolate after 18 to 22 hrs by broth microdilution method
[20] = system: Citrobacter freundii; experiment: Antimicrobial activity against AmpC beta-lactamase-producing Citrobacter freundii clinical isolate after 18 to 22 hrs by broth microdilution method
[21] = system: Klebsiella aerogenes; experiment: Antimicrobial activity against AmpC beta-lactamase-producing Enterobacter aerogenes clinical isolate after 18 to 22 hrs by broth microdilution method
[22] = system: Enterobacter cloacae; experiment: Antimicrobial activity against AmpC beta-lactamase-producing Enterobacter cloacae clinical isolate after 18 to 22 hrs by broth microdilution method
[23] = system: Serratia marcescens; experiment: Antimicrobial activity against AmpC beta-lactamase-producing Serratia marcescens clinical isolate after 18 to 22 hrs by broth microdilution method
[24] = system: Klebsiella aerogenes; experiment: Antimicrobial activity against Enterobacter aerogenes clinical isolate after 18 to 22 hrs by broth microdilution method
[25] = system: Citrobacter freundii; experiment: Antimicrobial activity against Citrobacter freundii clinical isolate after 18 to 22 hrs by broth microdilution method
[26] = system: Klebsiella pneumoniae; experiment: Antimicrobial activity against Klebsiella pneumoniae clinical isolate after 18 to 22 hrs by broth microdilution method
[27] = system: Klebsiella pneumoniae; experiment: Antimicrobial activity against class A extended spectrum beta-lactamase- producing Klebsiella pneumoniae clinical isolate after 18 to 22 hrs by broth microdilution method
[28] = system: Klebsiella pneumoniae; experiment: Antimicrobial activity against class A extended spectrum beta-lactamase- and class D OXA- producing Klebsiella pneumoniae clinical isolate after 18 to 22 hrs by broth microdilution method
[29] = system: Klebsiella pneumoniae; experiment: Antimicrobial activity against AmpC- producing Klebsiella pneumoniae clinical isolate after 18 to 22 hrs by broth microdilution method
[30] = system: Klebsiella oxytoca; experiment: Antimicrobial activity against Klebsiella oxytoca clinical isolate after 18 to 22 hrs by broth microdilution method
[31] = system: Serratia marcescens; experiment: Antimicrobial activity against Serratia marcescens clinical isolate after 18 to 22 hrs by broth microdilution method
[32] = system: Morganella morganii; experiment: Antimicrobial activity against Morganella morganii clinical isolate after 18 to 22 hrs by broth microdilution method
[33] = system: Proteus mirabilis; experiment: Antimicrobial activity against Proteus mirabilis clinical isolate after 18 to 22 hrs by broth microdilution method
[34] = system: Proteus vulgaris; experiment: Antimicrobial activity against Proteus vulgaris clinical isolate after 18 to 22 hrs by broth microdilution method
[35] = system: Providencia rettgeri; experiment: Antimicrobial activity against Providencia rettgeri clinical isolate after 18 to 22 hrs by broth microdilution method
[36] = system: Providencia stuartii; experiment: Antimicrobial activity against Providencia stuartii clinical isolate after 18 to 22 hrs by broth microdilution method
[37] = system: Acinetobacter calcoaceticus; experiment: Antimicrobial activity against Acinetobacter calcoaceticus clinical isolate after 18 to 22 hrs by broth microdilution method
[38] = system: Acinetobacter baumannii; experiment: Antimicrobial activity against Acinetobacter baumannii clinical isolate after 18 to 22 hrs by broth microdilution method
[39] = system: Acinetobacter haemolyticus; experiment: Antimicrobial activity against Acinetobacter haemolyticus clinical isolate after 18 to 22 hrs by broth microdilution method
[40] = system: Acinetobacter johnsonii; experiment: Antimicrobial activity against Acinetobacter johnsonii clinical isolate after 18 to 22 hrs by broth microdilution method
[41] = system: Acinetobacter junii; experiment: Antimicrobial activity against Acinetobacter junii clinical isolate after 18 to 22 hrs by broth microdilution method
[42] = system: Acinetobacter lwoffii; experiment: Antimicrobial activity against Acinetobacter lwoffii clinical isolate after 18 to 22 hrs by broth microdilution method

CO[C@@]1(NC(=O)Cc2cccs2)C(=O)N2C(C(=O)O)=C(COC(N)=O)CS[C@@H]21 [CEFOXITIN]
MIC50 [1]: 8 µg/mL (≈ 18.7 µM)
MIC90 [1]: 16 µg/mL (≈ 37.4 µM)
MIC [2]: 16 µg/mL (≈ 37.4 µM)
MIC50 [2]: 16 µg/mL (≈ 37.4 µM)
MIC90 [2]: 32 µg/mL (≈ 74.9 µM)
MIC50 [3]: 16 µg/mL (≈ 37.4 µM)
MIC90 [3]: 16 µg/mL (≈ 37.4 µM)
MIC50 [4]: 1 µg/mL (≈ 2.34 µM)
MIC90 [4]: 2 µg/mL (≈ 4.68 µM)
MIC50 [5]: 0.25 µg/mL (≈ 0.585 µM)
MIC90 [5]: 1 µg/mL (≈ 2.34 µM)
MIC50 [6]: 0.5 µg/mL (≈ 1.17 µM)
MIC90 [6]: 0.5 µg/mL (≈ 1.17 µM)

CO/N=C(\C(=O)N[C@@H]1C(=O)N2C(C(=O)O)=C(CSc3nc(=O)c(O)nn3C)CS[C@H]12)c1csc(N)n1 [CEFTRIAXONE]
MIC50 [7]: 32 µg/mL (≈ 57.7 µM)
MIC90 [7]: > 32 µg/mL
MIC [8]: > 32 µg/mL
MIC50 [8]: > 32 µg/mL
MIC90 [8]: > 32 µg/mL
MIC50 [9]: > 32 µg/mL
MIC90 [9]: > 32 µg/mL
MIC [10]: ≤ 0.03 µg/mL
MIC50 [10]: ≤ 0.03 µg/mL
MIC90 [10]: ≤ 0.03 µg/mL
MIC [11]: ≤ 0.03 µg/mL
MIC50 [11]: ≤ 0.03 µg/mL
MIC90 [11]: ≤ 0.03 µg/mL
MIC [12]: ≤ 0.03 µg/mL
MIC50 [12]: ≤ 0.03 µg/mL
MIC90 [12]: ≤ 0.03 µg/mL
MIC [13]: ≤ 0.03 µg/mL
MIC50 [13]: ≤ 0.03 µg/mL
MIC90 [13]: 0.5 µg/mL (≈ 0.902 µM)
MIC50 [14]: 0.06 µg/mL (≈ 0.108 µM)
MIC90 [14]: 0.25 µg/mL (≈ 0.451 µM)
MIC50 [15]: 0.5 µg/mL (≈ 0.902 µM)
MIC90 [15]: > 32 µg/mL
MIC [16]: > 32 µg/mL
MIC50 [16]: > 32 µg/mL
MIC90 [16]: > 32 µg/mL
MIC50 [17]: 0.06 µg/mL (≈ 0.108 µM)
MIC90 [17]: 0.06 µg/mL (≈ 0.108 µM)
MIC50 [18]: > 32 µg/mL
MIC90 [18]: > 32 µg/mL
MIC50 [19]: > 32 µg/mL
MIC90 [19]: > 32 µg/mL
MIC50 [20]: 32 µg/mL (≈ 57.7 µM)
MIC90 [20]: > 32 µg/mL
MIC50 [21]: 32 µg/mL (≈ 57.7 µM)
MIC90 [21]: > 32 µg/mL
MIC50 [22]: 32 µg/mL (≈ 57.7 µM)
MIC90 [22]: > 32 µg/mL
MIC50 [23]: 32 µg/mL (≈ 57.7 µM)
MIC90 [23]: > 32 µg/mL
MIC50 [24]: 0.12 µg/mL (≈ 0.216 µM)
MIC90 [24]: > 32 µg/mL
MIC50 [25]: 0.5 µg/mL (≈ 0.902 µM)
MIC90 [25]: > 32 µg/mL
MIC50 [26]: 0.06 µg/mL (≈ 0.108 µM)
MIC90 [26]: 0.12 µg/mL (≈ 0.216 µM)
MIC50 [27]: > 32 µg/mL
MIC90 [27]: > 32 µg/mL
MIC50 [28]: > 32 µg/mL
MIC90 [28]: > 32 µg/mL
MIC50 [29]: 32 µg/mL (≈ 57.7 µM)
MIC90 [29]: > 32 µg/mL
MIC50 [30]: 0.06 µg/mL (≈ 0.108 µM)
MIC90 [30]: 0.12 µg/mL (≈ 0.216 µM)
MIC50 [31]: 0.5 µg/mL (≈ 0.902 µM)
MIC90 [31]: > 32 µg/mL
MIC50 [32]: 0.06 µg/mL (≈ 0.108 µM)
MIC90 [32]: 8 µg/mL (≈ 14.4 µM)
MIC50 [33]: ≤ 0.03 µg/mL
MIC90 [33]: > 32 µg/mL
MIC50 [34]: 32 µg/mL (≈ 57.7 µM)
MIC90 [34]: > 32 µg/mL
MIC50 [35]: 0.06 µg/mL (≈ 0.108 µM)
MIC90 [35]: > 32 µg/mL
MIC50 [36]: 0.06 µg/mL (≈ 0.108 µM)
MIC90 [36]: > 32 µg/mL
MIC50 [37]: > 32 µg/mL
MIC90 [37]: > 32 µg/mL
MIC50 [38]: > 32 µg/mL
MIC90 [38]: > 32 µg/mL
MIC50 [39]: 2 µg/mL (≈ 3.61 µM)
MIC90 [39]: 8 µg/mL (≈ 14.4 µM)
MIC50 [40]: 2 µg/mL (≈ 3.61 µM)
MIC90 [40]: 8 µg/mL (≈ 14.4 µM)
MIC50 [41]: 2 µg/mL (≈ 3.61 µM)
MIC90 [41]: 8 µg/mL (≈ 14.4 µM)
MIC50 [42]: 2 µg/mL (≈ 3.61 µM)
MIC90 [42]: 8 µg/mL (≈ 14.4 µM)
